Patent US9493833B1, “Methods for preventing induced synthesis of proteasomes in human cells” (THE REGENTS OF THE UNIVERSITY OF CALIFORNIA, priority 2009, dated 2016)
Where a SMILES comes first, the peptide text is derived from it. The star is where a group is joined. Cbz = O=C(OCc1ccccc1)*

B1: Flag-Nrf1: human Nrf1 with N-terminal 3×FLAG tag, expressed from pMSCV-hyg retroviral vector (protein, UniProt Q14494 1-772, looked up)
Endoplasmic reticulum …: MLSLKKYLTEGLLQFTILLSLIGVRVDVDTYLTSQLPPLREIILGPSSAYTQTQFHNLRNTLDGYGIHPKSIDLDNYFTARRLLSQVRALDRFQVPTTEVNAWLVHRDPEGSVSGSQPNSGLALESSSGLQDVTGPDNGVRESETEQGFGEDLEDLGAVAPPVSGDLTKEDIDLIDILWRQDIDLGAGREVFDYSHRQKEQDVEKELRDGGEQDTWAGEGAEALARNLLVDGETGESFPAQVPSGEDQTALSLEECLRLLEATCPFGENAEFPADISSITEAVPSESEPPALQNNLLSPLLTGTESPFDLEQQWQDLMSIMEMQAMEVNTSASEILYSAPPGDPLSTNYSLAPNTPINQNVSLHQASLGGCSQDFLLFSPEVESLPVASSSTLLPLAPSNSTSLNSTFGSTNLTGLFFPPQLNGTANDTAGPELPDPLGGLLDEAMLDEISLMDLAIEEGFNPVQASQLEEEFDSDSGLSLDSSHSPSSLSSSEGSSSSSSSSSSSSSSASSSASSSFSEEGAVGYSSDSETLDLEEAEGAVGYQPEYSKFCRMSYQDPAQLSCLPYLEHVGHNHTYNMAPSALDSADLPPPSALKKGSKEKQADFLDKQMSRDEHRARAMKIPFTNDKIINLPVEEFNELLSKYQLSEAQLSLIRDIRRRGKNKMAAQNCRKRKLDTILNLERDVEDLQRDKARLLREKVEFLRSLRQMKQKVQSLYQEVFGRLRDENGRPYSPSQYALQYAGDGSVLLIPRTMADQQARRQERKPKDRRK
modifications: N-terminal 3xFLAG tag
notes: human Nrf1 with N-terminal 3×FLAG tag, expressed from pMSCV-hyg retroviral vector

Assays:
[1] = target: T1, proteasome (chymotryptic site) (Homo sapiens, UniProt P20618+P28074); assay: Proteasome activity recovery assay in HT29 cells after drug wash-out; assay type: cell-based
T1 construct: endogenous in cells; host or cells: HT29 human colon cancer cells, treated intact; activity measured in freeze-thaw lysate
Procedure: Cells were frozen at different time points as indicated and were used for proteasome activity assays as described herein. For each time point, the results are normalized to DMSO-treated control in the case of hatched lines and to CHX-treated control in the case of solid lines. Error bars denote SD (n=3). […] The results were normalized to DMSO-treated control for each cell type. Error bars denote S.E.M. (n=2). […] The next day, the cells were treated with indicated concentrations of YU101 and the pan-caspase inhibitor Z-VAD-FMK, and further incubated for 72 hrs. The cell viability was then assessed using the CellTiter-Glo method (FIG. 12A). The results were normalized to DMSO-treated control which was set to 100% in each case. Error bars denote S.E.M. (n=2). […] The cell lysates were used for immunoblotting to detect the levels of Nrf1 (with the antibody raised against N-terminus) and cleaved caspase-3. β-actin protein levels were used as loading control. […] The cells were then washed with PBS thrice and allowed to recover in fresh medium. At definite time points, the cells were freeze-thawed in TE buffer (20 mM Tris pH 8, 5 mM EDTA) and subsequently used for measuring proteasome activity as described previously (Demo et al., 2007).

PSM genes [2] = assay: mRNA levels of representative PSM genes by quantitative RT-PCR in MEFs (WT, Nrf1−/−, Nrf2−/−; retroviral transduction); assay type: cell-based, mouse; conditions: 10 hrs
Procedure: Specifically, MEFs of different genotypes (WT, Nrf1^−/−, and Nrf2^−/−) were treated for 10 hrs with MG132 as indicated (FIG. 2A), and the cell lysates were used for immunoblotting to detect protein levels of Nrf1 (with the antibody raised against the N-terminus) and Nrf2. β-actin protein levels were used as loading control. RNA from MEFs under the same treatment conditions as above was used for quantitative RT-PCR to assess the mRNA levels of representative PSM genes (FIGS. 2B-2C), The values were normalized to GAPDH and the DMSO treated WT sample was set to 1. Error bars denote SD (n=3).
Nrf1^−/− MEFs were transduced with retrovirus expressing one of Flag-Nrf1, Flag-Nrf1-HA or vector control and 72 hrs later treated with MG132 for 10 hrs as indicated. The cell lysates were used for immunoblotting to detect the levels of exogenous Nrf1 by using tag-specific antibodies (FIG. 3A). β-actin protein levels were used as loading control. RNA from Nrf1^−/− MEFs under the same viral transduction and treatment conditions as above was used for quantitative RT-PCR to assess the mRNA levels of representative PSM genes (FIG. 3B). The values were normalized to GAPDH and the vector-transduced DMSO-treated sample was set to 1. Error bars denote SD (n=3).
WT and Nrf1^−/− MEFs were transduced with retrovirus expressing sh-Nrf1 or vector control and 72 hrs later treated with MG132 for 10 hrs as indicated. […] RNA from MEFs under the same viral transduction and treatment conditions as above was used for quantitative RT-PCR to assess the mRNA levels of representative PSM genes (FIG. 4B). […]
(§1) RNA was isolated using the RNeasy kit (Qiagen). cDNA was prepared using the Superscript III first strand synthesis kit (Invitrogen) according to the manufacturer's recommendations. Quantitative PCR (qPCR) was performed using the SYBR GreenER supermix (Invitrogen).

[3] = test system: anti-oxidant response elements (8×AREs); assay: 8×ARE-SV40-Luc luciferase reporter assay in LNCaP cells; assay type: cell-based, human; conditions: for luciferase activity (8×ARE reporter) in combination with MG132: TSA or SAHA added with MG132, 16 hours
Procedure: TSA and SAHA were assayed using a luciferase reporter construct. The luciferase reporter was driven by a promoter harboring multimerized anti-oxidant response elements (8×AREs) and was transfected into LNCaP cells.
(§2) LNCaP cells were subjected to treatment with one of MG132 (1 μM), TSA (1 μM), SAHA (5 μM), MG132 (1 μM)+TSA (1 μM), or MG132 (1 μM)+SAHA (1 μM) for 10 hrs and the RNA from these cells was used for quantitative RT-PCR to assess the mRNA levels of representative PSM genes (FIG. 5A). The values were normalized to GAPDH and the DMSO-treated sample was set to 1. A representative experiment performed in duplicates is shown. MDA-MB-231 cells were treated with different agents at the same concentrations as above (except MG132 which was used at 5 μM) for 48 hrs after which the cells were used for cell-titer glo assay to assess cell viability. Data from an experiment performed in quadruplicates is shown (FIG. 5B). LNCaP cells transfected with 8×ARE-SV40-Luc construct alone (control) or co-transfected with Flag-Nrf1 were further treated with different agents as indicated (FIG. 10). pRL-TK renilla luciferase expression construct was used as a transfection control for normalization. Sixteen hours later, the cells were harvested and used for Luciferase assay.
(§3) Cells were transiently transfected with the firefly (promoter reporters) and renilla luciferase (pRL-TK; Promega) constructs along with effector plasmid as required. After harvesting the cells, luciferase assays were performed using the Dual Luciferase reporter assay system (E1910; Promega) according to the instructions from the manufacturer. The firefly luciferase activity was normalized to renilla luciferase activity for all experiments.

PSMA4 ARE = assay: 3×PSMA4-ARE-Luc / 3×PSMA4-mutARE-Luc luciferase assay in LNCaP cells; assay type: cell-based, human; conditions: for luciferase activity (3×PSMA4-mutARE-Luc, AREs mutated) / luciferase activity (3×PSMA4-ARE-Luc): LNCaP; for luciferase activity (3×PSMA4-ARE-Luc): versus DMSO-treated / vector control, MG132 12 hrs
Procedure: (§4) Sequence alignment of the genomic region close to the transcription start site (indicated by +1) of the PSMB6 gene in mouse and human. The putative ARE sequences and the start codon are marked as shown (FIG. 6). WT and Nrf1^−/− MEFs were transfected with the PSMB6-Luc construct and 24 hrs post-transfection, the cells were treated with the indicated concentration of MG132 for 12 hrs after which luciferase assays were performed as described herein (FIG. 7). Error bars denote SD (n=3). […] LNCaP cells were transiently transfected with the indicated reporter constructs along with either a vector control or Flag-Nrf1 expression construct. Forty-eight hours (hrs) after transfection, the cells were further incubated with the indicated concentration of MG132 for 12 hrs after which luciferase assays were performed as described herein (FIG. 9). Error bars denote SD (n=3).
as §3

[4] = test system: PSM genes (PSMA7, PSMB4, PSMB7, PSMC1, PSMC4, PSMD1, PSMD12); assay: mRNA levels of representative PSM genes by quantitative RT-PCR in LNCaP and HT-29 cells treated with proteasome inhibitors or MLN4924; assay type: cell-based, human; conditions: 10 hrs, normalized to GAPDH, DMSO set to 1
Procedure: The human prostate cancer LNCaP and colon cancer HT29 cell lines were incubated with different proteasome inhibitors (MG132, YU101, and bortezomib) or the Nedd8 pathway inhibitor MLN4924 (Soucy et al., 2009, Nature, 458, 732-736). Prostate cancer LNCaP and colon cancer HT-29 cells were treated with the indicated concentrations of proteasome inhibitors (MG132, YU101, and Bortezomib) or the Nedd8 pathway inhibitor (MLN4924) for 10 hrs, and mRNA levels of representative PSM genes were analyzed by quantitative RT-PCR (FIGS. 1A-1C). The values were normalized to GAPDH and for each cell line the DMSO treated sample was set to 1. Error bars denote SD (n=3). […] MLN4924 works by inhibiting the Nedd8-activating enzyme, the result of which is the accumulation of cullin-RING ligase (CRL) substrates (Soucy et al., 2009).
as §1

murine PSMB6 promoter = assay: PSMB6-Luc promoter-reporter luciferase assay in MEFs; assay type: cell-based, mouse; conditions: WT MEFs, MG132 12 hrs
Procedure: as §4, §3

MDA-MB-231 cells = assay: Cell-titer glo cell viability, MG132 combined with TSA or SAHA; assay type: cell-based, human; conditions: MDA-MB-231, MG132 5 μM combined with TSA or SAHA, 48 hrs
Procedure: as §2
Cells in 96-well plates were treated with different agents as required and cell viability was assessed using the Cell-Titer Glo kit (G7572; Promega) according to the protocol recommended by the manufacturer. By employing a luminescence read-out, this kit quantifies the level of ATP which is proportional to the number of viable cells.

PSM genes [5] = assay: PSM gene mRNA by quantitative RT-PCR in LNCaP cells treated with MG132 and HDAC inhibitors; assay type: cell-based, human; conditions: 10 hrs; for MG132-mediated upregulation of representative PSM genes: MG132 1 μM + TSA 1 μM or MG132 1 μM + SAHA 1 μM; for steady-state PSM gene expression: TSA 1 μM or SAHA 5 μM alone
Procedure: as §2, §1

[6] = after administration; cited from earlier work

Molecule	luciferase activity (3×PSMA4-mutARE-Luc, AREs mutated) (PSMA4 ARE)	luciferase activity (3×PSMA4-ARE-Luc) (PSMA4 ARE)	mRNA levels of PSM genes [4]	luciferase activity (8×ARE reporter) in combination with MG132 [3]	apoptosis / cell viability in combination with MG132 (MDA-MB-231 cells)	MG132-mediated upregulation of representative PSM genes (PSM genes [5])	steady-state PSM gene expression (PSM genes [5])	clearance from the patients' blood [6]	also measured
CC(C)C[C@@H](C=O)NC(=O)[C@H](CC(C)C)NC(=O)[C@H](CC(C)C)NC(=O)OCc1ccccc1 [MG132] (Cbz-Leu-Leu-Leu-aldehyde)	neither MG132 nor overexpressed Flag-Nrf1 induced the synthetic promoter construct	an increase in luciferase activity was observed when compared to DMSO-treated control	robustly induce mRNA levels of several PSM genes						inhibition at 2 µM ([1]; HT-29, read-out: inhibition of the chymotryptic site): 80 to 90%; mRNA levels of PSM genes after MG132 (PSM genes [2]; Nrf1−/− MEFs): severely blunted in their ability to upregulate PSM genes; mRNA levels of PSM genes after MG132 (PSM genes [2]; Nrf2−/− MEFs): induced mRNA levels of PSM genes; mRNA levels of PSM genes after MG132 (PSM genes [2]; WT MEFs): induced mRNA levels of PSM genes; luciferase expression (8×ARE reporter) ([3]; MG132 alone versus untreated cells): luciferase expression was increased compared to non-test (untreated) cells; luciferase activation (3×PSMA4-ARE-Luc) in cells overexpressing Flag-Nrf1 (PSMA4 ARE; LNCaP with Flag-Nrf1, plus MG132): further enhanced; luciferase activity (PSMB6 promoter-reporter) (murine PSMB6 promoter): dose dependent increase in luciferase activity
CC(/C=C/C(=O)NO)=C\[C@@H](C)C(=O)c1ccc(N(C)C)cc1 [TSA, trichostatin A]				basal levels of luciferase activity were observed	enhanced apoptosis (decreased viability)	reproducibly inhibited the MG132-mediated upregulation of representative PSM genes	little effect on steady-state PSM gene expression		
CC(C)C[C@H](NC(=O)[C@H](Cc1ccccc1)NC(=O)c1cnccn1)B(O)O [bortezomib]			robustly induce mRNA levels of several PSM genes					rapidly cleared from the patients' blood within the first hour	inhibition at 0.04 µM ([1]; HT-29, HT29, 1 hr, MG132 2 μM, YU101 100 nM, Bortezomib 40 nM): 80 to 90%
O=C(CCCCCCC(=O)Nc1ccccc1)NO [SAHA, suberoylanilide hydroxamic acid]				basal levels of luciferase activity were observed	enhanced apoptosis (decreased viability)	reproducibly inhibited the MG132-mediated upregulation of representative PSM genes	little effect on steady-state PSM gene expression		
CC(C)C[C@H](NC(=O)[C@H](CCc1ccccc1)NC(=O)CN1CCOCC1)C(=O)N[C@@H](Cc1ccccc1)C(=O)N[C@@H](CC(C)C)C(=O)[C@@]1(C)CO1 [carfilzomib]								rapidly cleared from the patients' blood within the first hour	
B1	neither MG132 nor overexpressed Flag-Nrf1 induced the synthetic promoter construct	activated this synthetic promoter construct							
